{"source": "paper PMC6423038", "about": "“Deferiprone: Pan-selective Histone Lysine Demethylase Inhibition Activity and Structure Activity Relationship Study” (Scientific Reports, 2019)", "key": {"KDM4A (JMJD2A)": {"biological_target": "T1, KDM4A (JMJD2A) (Homo sapiens, UniProt O75164)", "T1 construct": "purchased BPS Bioscience", "T1 sequence (O75164 whole entry)": "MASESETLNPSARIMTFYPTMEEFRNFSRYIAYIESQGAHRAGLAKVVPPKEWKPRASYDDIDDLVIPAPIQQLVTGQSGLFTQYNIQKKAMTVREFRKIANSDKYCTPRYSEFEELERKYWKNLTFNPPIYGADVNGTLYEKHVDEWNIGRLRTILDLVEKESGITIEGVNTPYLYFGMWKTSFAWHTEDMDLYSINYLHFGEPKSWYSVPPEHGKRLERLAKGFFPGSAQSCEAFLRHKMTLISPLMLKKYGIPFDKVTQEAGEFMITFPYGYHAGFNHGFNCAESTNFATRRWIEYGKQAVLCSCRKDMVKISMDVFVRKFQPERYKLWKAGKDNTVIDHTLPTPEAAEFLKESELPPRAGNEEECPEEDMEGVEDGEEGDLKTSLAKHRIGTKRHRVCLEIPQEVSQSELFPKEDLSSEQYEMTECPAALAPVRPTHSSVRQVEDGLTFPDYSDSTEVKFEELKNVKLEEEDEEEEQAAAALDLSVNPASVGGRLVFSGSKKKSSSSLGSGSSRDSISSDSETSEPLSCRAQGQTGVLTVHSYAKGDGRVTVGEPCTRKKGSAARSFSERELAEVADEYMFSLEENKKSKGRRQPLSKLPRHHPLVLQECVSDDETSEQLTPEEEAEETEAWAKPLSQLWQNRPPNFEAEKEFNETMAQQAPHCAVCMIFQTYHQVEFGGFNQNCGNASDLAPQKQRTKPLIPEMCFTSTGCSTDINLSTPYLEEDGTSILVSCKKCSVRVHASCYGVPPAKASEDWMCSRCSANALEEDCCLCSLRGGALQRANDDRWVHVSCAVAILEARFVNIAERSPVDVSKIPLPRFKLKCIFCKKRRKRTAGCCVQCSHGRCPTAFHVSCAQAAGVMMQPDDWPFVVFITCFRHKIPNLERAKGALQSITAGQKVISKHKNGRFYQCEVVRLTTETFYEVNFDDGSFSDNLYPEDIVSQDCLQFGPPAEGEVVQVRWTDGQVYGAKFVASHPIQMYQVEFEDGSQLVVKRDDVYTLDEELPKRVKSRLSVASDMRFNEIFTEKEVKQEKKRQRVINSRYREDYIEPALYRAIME", "assay": "KDM cell-free assay (AlphaScreen, BPS Bioscience)", "type": "biochemical", "details": "recombinant human KDM4A (JMJD2A); max tested 25 μM"}, "KDM6A (UTX)": {"biological_target": "T2, KDM6A (UTX) (Homo sapiens, UniProt O15550)", "T2 construct": "purchased BPS Bioscience", "assay": "KDM cell-free assay (AlphaScreen, BPS Bioscience)", "type": "biochemical", "details": "recombinant human KDM6A (UTX); read-out: IC50"}, "[1]": {"test_system": "HP1-mediated heterochromatin gene repression in CiA:Oct4 embryonic stem cells", "assay": "HP1-recruitment assay dose curve (CiA:Oct4, with CIP-rapamycin), flow cytometry", "type": "cell-based, mouse", "details": "48 h with CIP-rapamycin recruitment of HP1; up to 10 µM", "source_text": "To elucidate the effect of DFP-based KDM inhibitors on chromatin dynamics, we profiled them in an intracellular assay which measures heterochromatin formation speed. The chromatin in vivo assay (CiA) leverages chemical induced proximity (CIP) to recruit heterochromatin protein 1 (HP1) to a modified Oct4 locus. This reporter system is composed of tandem arrays of Gal4 and zinc finger DNA binding domains in the promoter of one allele of Oct4, where the gene was replaced by a nuclear eGFP reporter. Protein fusions of Gal4-FKBP and FRB-HP1 allow for direct chemical recruitment of HP1 to the CiA:Oct4 reporter locus upon addition of the chemical inducer of proximity (CIP)-rapamycin. After CIP-rapamycin addition, HP1 is recruited to the reporter locus and brings histone methyltransferase enzymes to the chromatin reporter resulting in the repressive H3K9me3 mark being deposited (Fig. 10A). H3K9me3 deposition is the signature mark of heterochromatin and is coupled with gene silencing and loss of GFP expression (Fig. 10B)[33]. Others have shown that H3K4me3 marked nucleosomes impede H3K9 methyltransferase activity. Thus, we postulate that the active H3K4me3 mark must be removed by KDM enzymes as part of the transformation from euchromatin to heterochromatin. Inhibition of KDMs, specifically those targeting H3K4me3, would result in a decrease in H3K9me3 accumulation, which would be measured in our assay as an increase in GFP positive cells.\nTo determine the effect of DFP-based KDM inhibitors on HP1-mediated gene repression, we treated CiA:Oct4 embryonic stem (ES) cells with doses of representative compounds ranging from 10 µM–250 nM for 48 h with CIP-rapamycin recruitment of HP1 (Fig. 10C). […] The percentage of GFP(+) cells was determined by flow cytometry as indicated in representative histograms (Supplemental Fig. S8).\nDay 0, CiA:Oct4 N118/163 cells were grown in ES media and seeded at a density of 10,000 cells per well in 100 μL media (100,000 cells mL^−1) on gelatin coated 96 well plates. Day 1, culture media was aspirated and replaced with 100 µL ES media containing +/− 6 nM rapamycin. 10 µM, 5 µM, 2.5 µM, 1 µM, 500 nM, and 250 nM concentrations of compound or DMSO were added using a TTP Labtech Mosquito HTS liquid handler. Days 2, fresh ES media +/− rapamycin and compound were added as in Day 1. Day 3, cells were washed with PBS and trypsinized using 0.25% trypsin-EDTA. Trypsin was quenched with serum. Cells were resuspended by pipetting in preparation for flow cytometry analysis.\nFlow cytometry data was acquired using the Intellicyt iQue Screener and analyzed with FlowJo software.\nThe CiA:Oct4 recruitment system in mouse embryonic stem cells contains Gal4 and Zinc finger DNA binding arrays and a downstream nuclear eGFP gene in place of a single Oct4 allele as previously described.^30 The CiA:Oct4 N118/N163 cell line containing viral integrations of N118 and N163 plasmids (N118- nLV EF-1α-Gal-FKBPx1-HA-PGK-Blast, N163- nLV EF-1α-HP1α (CS)-Frbx2(Frb+FrbWobb)-V5-PGK-Puro) was used for inhibition of HP1-mediated heterochromatin studies. All plasmids are freely available on addgene.\nHP1-Recruitment Assay Dose Curve. Day 0, CiA:Oct4 N118/163 cells were grown in ES media and seeded at a density of 10,000 cells per well in 100 µL media (100,000 cells mL^-1) on gelatin coated 96 well plates. Day 1, culture media was aspirated and replaced with 100 µL ES media containing +/- 6 nM rapamycin. 10 µM, 5 µM, 2.5 µM, 1 µM, 500 nM, and 250 nM concentrations of compound or DMSO were added using a TTP Labtech Mosquito HTS liquid handler. Days 2, fresh ES media +/- rapamycin and compound were added as in Day 1. Day 3, cells were washed with PBS and trypsinized using 0.25% trypsin-EDTA. Trypsin was quenched with serum. Cells were resuspended by pipetting in preparation for flow cytometry analysis.\nFlow Cytometry and Analysis."}, "KDM1A (LSD1)": {"biological_target": "KDM1A (LSD1) (Homo sapiens, UniProt O60341)", "assay": "KDM cell-free assay (AlphaScreen, BPS Bioscience)"}, "KDM3A (JMJD1A)": {"biological_target": "KDM3A (JMJD1A) (Homo sapiens, UniProt Q9Y4C1)", "assay": "KDM cell-free assay (AlphaScreen, BPS Bioscience)"}, "KDM3B (JMJD1B)": {"biological_target": "KDM3B (JMJD1B) (Homo sapiens, UniProt Q7LBC6)", "assay": "KDM cell-free assay (AlphaScreen, BPS Bioscience)"}, "KDM4C (JMJD2C)": {"biological_target": "KDM4C (JMJD2C) (Homo sapiens, UniProt Q9H3R0)", "sequence (Q9H3R0 whole entry)": "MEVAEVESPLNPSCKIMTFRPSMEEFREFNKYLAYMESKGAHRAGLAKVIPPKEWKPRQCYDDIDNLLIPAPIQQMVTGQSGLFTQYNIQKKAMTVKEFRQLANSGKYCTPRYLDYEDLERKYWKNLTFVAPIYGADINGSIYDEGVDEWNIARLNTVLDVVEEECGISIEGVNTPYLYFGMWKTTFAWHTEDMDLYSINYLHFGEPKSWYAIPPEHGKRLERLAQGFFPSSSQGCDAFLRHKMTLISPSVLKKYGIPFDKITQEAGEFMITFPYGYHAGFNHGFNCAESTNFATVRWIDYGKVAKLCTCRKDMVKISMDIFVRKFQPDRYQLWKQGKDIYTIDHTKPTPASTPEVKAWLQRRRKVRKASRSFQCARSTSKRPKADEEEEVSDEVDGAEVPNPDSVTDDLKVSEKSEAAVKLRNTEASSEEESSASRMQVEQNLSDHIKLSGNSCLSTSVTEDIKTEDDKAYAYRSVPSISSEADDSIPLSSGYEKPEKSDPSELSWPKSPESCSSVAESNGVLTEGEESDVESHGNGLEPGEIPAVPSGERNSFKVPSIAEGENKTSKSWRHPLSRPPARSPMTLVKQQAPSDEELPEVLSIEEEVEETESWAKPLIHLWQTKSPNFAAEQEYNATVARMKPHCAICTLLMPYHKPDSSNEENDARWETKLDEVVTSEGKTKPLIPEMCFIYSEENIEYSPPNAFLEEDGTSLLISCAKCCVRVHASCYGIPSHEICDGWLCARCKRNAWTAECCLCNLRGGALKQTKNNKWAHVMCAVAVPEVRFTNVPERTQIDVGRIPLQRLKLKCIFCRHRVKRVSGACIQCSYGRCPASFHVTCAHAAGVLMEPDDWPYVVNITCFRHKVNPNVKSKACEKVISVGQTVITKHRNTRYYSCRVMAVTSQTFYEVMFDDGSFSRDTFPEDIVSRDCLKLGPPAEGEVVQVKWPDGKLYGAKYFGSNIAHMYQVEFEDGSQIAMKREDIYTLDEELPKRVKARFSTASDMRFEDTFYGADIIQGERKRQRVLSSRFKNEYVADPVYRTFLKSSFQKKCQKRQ", "assay": "KDM cell-free assay (AlphaScreen, BPS Bioscience)"}, "KDM4E (JMJD2E)": {"biological_target": "KDM4E (JMJD2E) (Homo sapiens, UniProt B2RXH2)", "assay": "KDM cell-free assay (AlphaScreen, BPS Bioscience)"}, "KDM5B (Jarid1B)": {"biological_target": "KDM5B (Jarid1B) (Homo sapiens, UniProt Q9UGL1)", "assay": "KDM cell-free assay (AlphaScreen, BPS Bioscience)"}, "KDM5C (Jarid1C)": {"biological_target": "KDM5C (Jarid1C) (Homo sapiens, UniProt P41229)", "assay": "KDM cell-free assay (AlphaScreen, BPS Bioscience)"}, "KDM6B (JMJD3)": {"biological_target": "KDM6B (JMJD3) (Homo sapiens, UniProt O15054)", "sequence (O15054 whole entry)": "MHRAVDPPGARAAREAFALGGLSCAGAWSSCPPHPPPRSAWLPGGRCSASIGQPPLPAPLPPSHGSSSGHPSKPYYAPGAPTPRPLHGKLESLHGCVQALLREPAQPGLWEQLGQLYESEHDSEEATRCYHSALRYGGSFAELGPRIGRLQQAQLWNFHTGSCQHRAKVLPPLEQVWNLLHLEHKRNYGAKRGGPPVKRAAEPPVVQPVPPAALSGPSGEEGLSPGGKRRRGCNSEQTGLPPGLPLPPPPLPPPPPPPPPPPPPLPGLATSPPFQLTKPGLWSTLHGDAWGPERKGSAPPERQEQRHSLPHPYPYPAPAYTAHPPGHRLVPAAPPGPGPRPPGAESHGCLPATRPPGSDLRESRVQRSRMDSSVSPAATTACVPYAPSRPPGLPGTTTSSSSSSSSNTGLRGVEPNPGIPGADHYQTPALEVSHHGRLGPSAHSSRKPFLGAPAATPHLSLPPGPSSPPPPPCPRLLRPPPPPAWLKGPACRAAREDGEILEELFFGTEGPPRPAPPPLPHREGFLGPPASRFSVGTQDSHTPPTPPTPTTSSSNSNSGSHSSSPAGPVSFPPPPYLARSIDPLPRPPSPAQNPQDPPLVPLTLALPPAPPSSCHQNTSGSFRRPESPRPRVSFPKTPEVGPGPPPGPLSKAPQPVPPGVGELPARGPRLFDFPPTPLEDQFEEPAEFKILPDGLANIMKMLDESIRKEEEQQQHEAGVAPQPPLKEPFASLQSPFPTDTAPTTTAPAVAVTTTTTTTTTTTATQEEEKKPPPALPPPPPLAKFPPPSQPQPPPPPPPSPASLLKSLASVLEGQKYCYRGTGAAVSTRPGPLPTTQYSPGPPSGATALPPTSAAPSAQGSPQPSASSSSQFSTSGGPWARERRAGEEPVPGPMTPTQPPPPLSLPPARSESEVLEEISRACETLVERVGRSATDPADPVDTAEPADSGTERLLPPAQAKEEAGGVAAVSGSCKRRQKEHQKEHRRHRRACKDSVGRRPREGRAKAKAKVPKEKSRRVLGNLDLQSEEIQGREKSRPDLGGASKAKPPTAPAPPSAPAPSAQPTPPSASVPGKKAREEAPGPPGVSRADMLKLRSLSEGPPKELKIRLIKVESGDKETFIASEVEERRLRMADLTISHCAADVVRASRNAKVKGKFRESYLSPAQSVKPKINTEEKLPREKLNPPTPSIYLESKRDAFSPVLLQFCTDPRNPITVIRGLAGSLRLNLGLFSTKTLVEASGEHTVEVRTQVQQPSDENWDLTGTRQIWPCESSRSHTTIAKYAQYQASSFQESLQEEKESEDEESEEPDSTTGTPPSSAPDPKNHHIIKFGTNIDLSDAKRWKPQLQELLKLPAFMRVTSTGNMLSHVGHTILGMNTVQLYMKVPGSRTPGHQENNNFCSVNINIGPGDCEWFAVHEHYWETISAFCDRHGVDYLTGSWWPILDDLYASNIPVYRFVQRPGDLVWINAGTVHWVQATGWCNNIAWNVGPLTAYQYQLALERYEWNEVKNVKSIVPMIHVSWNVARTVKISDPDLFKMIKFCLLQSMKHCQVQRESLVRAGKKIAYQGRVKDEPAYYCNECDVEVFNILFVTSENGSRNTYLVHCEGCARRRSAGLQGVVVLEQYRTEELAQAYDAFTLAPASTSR", "assay": "KDM cell-free assay (AlphaScreen, BPS Bioscience)"}, "KDM7A (JHDM1D)": {"biological_target": "KDM7A (JHDM1D) (Homo sapiens, UniProt Q6ZMT4)", "assay": "KDM cell-free assay (AlphaScreen, BPS Bioscience)"}, "KDM7B (PHF8)": {"biological_target": "KDM7B (PHF8) (Homo sapiens, UniProt Q9UPP1)", "sequence (Q9UPP1 whole entry)": "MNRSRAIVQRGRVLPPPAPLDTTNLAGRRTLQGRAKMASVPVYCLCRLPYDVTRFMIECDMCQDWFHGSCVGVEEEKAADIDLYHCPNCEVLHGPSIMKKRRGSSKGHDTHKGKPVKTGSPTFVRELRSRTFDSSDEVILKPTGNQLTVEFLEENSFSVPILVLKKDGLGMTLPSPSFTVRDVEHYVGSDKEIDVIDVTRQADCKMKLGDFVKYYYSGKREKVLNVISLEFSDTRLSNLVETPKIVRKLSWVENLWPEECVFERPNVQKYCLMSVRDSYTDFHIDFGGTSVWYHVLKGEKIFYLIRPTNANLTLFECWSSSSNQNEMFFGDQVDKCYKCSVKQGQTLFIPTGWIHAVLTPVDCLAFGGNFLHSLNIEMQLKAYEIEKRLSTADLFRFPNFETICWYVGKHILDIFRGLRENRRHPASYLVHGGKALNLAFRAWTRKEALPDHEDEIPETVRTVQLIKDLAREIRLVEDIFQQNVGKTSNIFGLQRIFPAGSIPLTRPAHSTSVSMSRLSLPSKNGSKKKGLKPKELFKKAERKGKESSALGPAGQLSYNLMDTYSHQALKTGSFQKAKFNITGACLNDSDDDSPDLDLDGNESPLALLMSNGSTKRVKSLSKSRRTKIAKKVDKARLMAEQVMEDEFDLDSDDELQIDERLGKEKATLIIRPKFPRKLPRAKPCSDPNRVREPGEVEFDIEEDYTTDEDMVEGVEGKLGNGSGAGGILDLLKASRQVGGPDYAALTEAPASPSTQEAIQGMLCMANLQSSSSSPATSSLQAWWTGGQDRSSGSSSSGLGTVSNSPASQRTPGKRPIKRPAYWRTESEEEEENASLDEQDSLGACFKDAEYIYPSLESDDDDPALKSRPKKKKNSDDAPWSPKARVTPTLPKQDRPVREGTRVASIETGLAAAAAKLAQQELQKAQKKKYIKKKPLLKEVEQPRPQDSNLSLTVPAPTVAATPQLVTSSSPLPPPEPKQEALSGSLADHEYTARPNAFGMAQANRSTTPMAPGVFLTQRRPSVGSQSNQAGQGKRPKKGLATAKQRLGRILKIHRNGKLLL", "assay": "KDM cell-free assay (AlphaScreen, BPS Bioscience)"}}}
{"molecule": "Cc1c(O)c(=O)ccn1C", "note": "[DFP, Deferiprone]", "values": [{"measurement": "IC50", "setting": "KDM4A (JMJD2A)", "result": "> 25", "unit": "µM"}, {"measurement": "IC50", "setting": "KDM6A (UTX)", "result": 4.2, "unit": "µM"}, {"measurement": "inhibition of heterochromatin formation", "setting": "[1]", "result": "did not inhibit heterochromatin formation"}, {"measurement": "IC50", "setting": "KDM1A (LSD1)", "result": "> 25", "unit": "µM"}, {"measurement": "IC50", "setting": "KDM3A (JMJD1A)", "result": "> 25", "unit": "µM"}, {"measurement": "IC50", "setting": "KDM3B (JMJD1B)", "result": "> 25", "unit": "µM"}, {"measurement": "IC50", "setting": "KDM4C (JMJD2C)", "result": "> 25", "unit": "µM"}, {"measurement": "IC50", "setting": "KDM4E (JMJD2E)", "result": "> 25", "unit": "µM"}, {"measurement": "IC50", "setting": "KDM5B (Jarid1B)", "result": "> 25", "unit": "µM"}, {"measurement": "IC50", "setting": "KDM5C (Jarid1C)", "result": 5.6, "unit": "µM"}, {"measurement": "IC50", "setting": "KDM6B (JMJD3)", "result": "> 25", "unit": "µM"}, {"measurement": "IC50", "setting": "KDM7A (JHDM1D)", "result": 16.6, "unit": "µM"}, {"measurement": "IC50", "setting": "KDM7B (PHF8)", "result": 15.6, "unit": "µM"}]}
